From patent publication US9918934B2, “Linker-based lecithin microemulsion delivery vehicles” (priority 2006, dated 2018)

Experiments:
[1] = tested on: reconstructed human skin EpiDerm™ EPI-200; type: in vitro ADME
Experimental: Lidocaine permeability was measured in vitro through reconstructed human skin EpiDerm™ EPI-200 and dorsal pig ear skin using selected formulations of examples 1 through 3. The model skin was placed in a commercial MATTEK™ Permeation Device (MPD). A test formulation (0.4 mL) was applied in the donor compartment. The receptor compartment was filled with 5 mL of PBS (0.01M phosphate, 0.137M NaCl, pH 7.4). At predetermined time, the receiver solution was withdrawn completely from the receptor compartment and was immediately replaced by fresh buffer solution. Sink conditions were maintained at all times. At 5.5 h, the experiment was terminated. All permeation experiments were conducted in triplicate at room temperature.
Lidocaine in receiver solutions was assayed by a UV spectrophotometer ([…] PLUS™, Amersham Pharmacia Biotech, U.S.A.). Receiver solutions were diluted with methanol and the absorbance at 230 nm were measured. A linear calibration curve for lidocaine was obtained at 230 nm in a range of 0-100 μg/mL with a linearity of 0.999.
The cumulative lidocaine amount permeated across the skin was plotted as a function of time (h), and average steady-state flux (J, μg/h/cm2) was calculated by dividing the slope from the linear part of the curve by the area of the exposed skin surface (0.256 cm2). […]

dorsal pig ear skin = type: in vitro ADME
Experimental: The model skin was placed in a commercial MATTEK™ Permeation Device (MPD). A test formulation (0.4 mL) was applied in the donor compartment. […] At predetermined time, the receiver solution was withdrawn completely from the receptor compartment and was immediately replaced by fresh buffer solution. Sink conditions were maintained at all times. At 5.5 h, the experiment was terminated. All permeation experiments were conducted in triplicate at room temperature.
Receiver solutions were diluted with methanol and the absorbance at 230 nm were measured.
The cumulative lidocaine amount permeated across the skin was plotted as a function of time (h), and average steady-state flux (J, μg/h/cm2) was calculated by dividing the slope from the linear part of the curve by the area of the exposed skin surface (0.256 cm2).
To measure the concentration of lidocaine in pig ear skin, the tissue was removed from the MATTEK™ permeation device, rinse with PBS solution and blotted with lint-free paper tissue to remove any excess of fluid. The tissue was immersed in 2 mL of methanol for a period of 24 hr. After that time, the concentration of lidocaine was measured using the HPLC method described above. The mass of lidocaine extracted is divided by the volume of the tissue (tissue thickness*cross sectional area) to obtain the equivalent lidocaine concentration in the skin. The skin permeability is calculated by dividing the transdermal flux by the lidocaine skin concentration.
The formulation LO-32 (a Type II lecithin linker microemulsion) was reformulated using lower lecithin concentration. The transdermal flux through pig ear dorsal skin was also evaluated for selected formulations, and following the procedures described above. […] (Where: (a) is lecithin; (b) is sorbitan monooleate; (c) is octanoic acid; (d) is sodium octanoate; (e) is water; (f) is lidocaine; (g) is isopropyl myristate; and (v) is microemulsion volume. Concentrations are expressed on a weight percentage basis (w/w).)

Row | MatTek Flux (lidocaine steady-state transdermal flux) [1] | Pig ear skin Flux (lidocaine steady-state transdermal flux) (dorsal pig ear skin) | Pig ear skin Lidocaine in skin (dorsal pig ear skin) | Pig skin permeability (dorsal pig ear skin) | Flux (lidocaine transdermal flux through excised pig ear skin) (dorsal pig ear skin) | Substance
1 | 160 +/− 10 μg/hr-cm^2 | 130 +/− 20 μg/hr-cm^2 | 5800 ± 200 µg/mL | 220 +/− 20 μm/hr | – | Pentanol
2 | 320 +/− 20 μg/hr-cm^2 | 110 +/− 10 μg/hr-cm^2 | 6800 ± 400 µg/mL | 160 +/− 20 μm/hr | 70 +/− 10 μg/cm^2 | Water
